For 20 molecules, MIC results are on record in patent US20120214760A1, “TREATMENT OF URINARY TRACT INFECTIONS WITH ANTIBACTERIAL AMINOGLYCOSIDE COMPOUNDS” (Achaogen, Inc., priority 2009, published 2012).

In brackets after ≈: the same amount, converted by molar mass.

The subject of test [1] is E. coli ATCC 25922 (AECO001). Put plainly: MIC, CLSI broth microdilution. It counts as cell-based. As to conditions: Escherichia coli, ATCC25922, read-out: MIC AECO001, Table 1; AECO001 is ATCC25922. Here is the method: (§1) Minimum inhibitory concentrations (MIC) were determined by reference Clinical and Laboratory Standards Institute (CLSI) broth microdilution methods per M7-A7 [2006]. Quality control ranges utilizing E. coli ATCC 25922, P. aeruginosa ATCC 27853 and S. aureus ATCC 29213, and interpretive criteria for comparator agents were as published in CLSI M100-S17 [2007]. Briefly, serial two-fold dilutions of the test compounds were prepared at 2× concentration in Mueller Hinton Broth. The compound dilutions were mixed in 96-well assay plates in a 1:1 ratio with bacterial inoculum. The inoculum was prepared by suspension of a colony from an agar plate that was prepared the previous day. Bacteria were suspended in sterile saline and added to each assay plate to obtain a final concentration of 5×10^5 CFU/mL. The plates were incubated at 35° C. for 20 hours in ambient air.
Background: Dilution methods test growth across graded concentrations, often in twofold steps.

Test [2] concerns P. aeruginosa ATCC 27853 (APAE001). Put plainly: MIC, CLSI broth microdilution. It counts as cell-based. The following applies: Pseudomonas aeruginosa, ATCC27853, read-out: MIC APAE001, Table 1; APAE001 is ATCC27853. The procedure:
as §1

Usually MIC stands for the lowest concentration found to suppress growth. With `CN[C@@H]1[C@@H](O)[C@@H](O[C@@H]2[C@@H](O)[C@H](O[C@H]3OC(CNCCC(N)C4CC4)=CC[C@H]3N)[C@@H](N)C[C@H]2NC(=O)[C@@H](O)CN)OC[C@]1(C)O` (stereo partly drawn) [Example 52, 6′-(3-Amino-3-cyclopropyl-propyl)-1-(3-amino-2(S)-hydroxy-propionyl)-sisomicin], the figures for the MIC in test [1] and in test [2] were under 1 µg/mL and 1 to 16 µg/mL (≈ 1.58 to 25.3 µM), respectively.

`CN[C@@H]1[C@@H](O)[C@@H](O[C@@H]2[C@@H](O)[C@H](O[C@H]3OC(CNCC4CC4)=CC[C@H]3N)[C@@H](N)C[C@H]2NC(=O)C2(O)CCNC2)OC[C@]1(C)O` (stereo partly shown) [Example 41]: the figures for the minimal inhibitory concentration (MIC) in test [1] and in test [2] were under 1 µg/mL and 1 to 16 µg/mL (≈ 1.63 to 26 µM), respectively.

Turning to `CN[C@@H]1[C@@H](O)[C@@H](O[C@@H]2[C@@H](O)[C@H](O[C@H]3OC(CNCC(O)CO)=CC[C@H]3N)[C@@H](N)C[C@H]2NC(=O)[C@@H](O)CN)OC[C@]1(C)O` (stereo partly drawn) [Example 14, 6′-(2-Hydroxy-propanol)-1-(3-amino-2(S)-hydroxy-propionyl)-sisomicin], the MIC in test [1] and in test [2] was 1 to 16 µg/mL (≈ 1.64 to 26.3 µM) throughout.

For `CN[C@@H]1[C@@H](O)[C@@H](O[C@@H]2[C@@H](O)[C@H](O[C@H]3OC(CNCC4CC(N)C4)=CC[C@H]3N)[C@@H](N)C[C@H]2NC(=O)[C@@H](O)CCN)OC[C@]1(C)O` (stereo partly drawn) [Example 33, 6′-(Methyl-trans-3-amino-cyclobutyl)-1-(4-amino-2(S)-hydroxy-butyryl)-sisomicin], the figures for the minimum inhibitory concentration (MIC) in test [1] and in test [2] were under 1 µg/mL and 1 to 16 µg/mL (≈ 1.58 to 25.3 µM), respectively.

In the case of `CN[C@@H]1[C@@H](O)[C@@H](O[C@@H]2[C@@H](O)[C@H](O[C@H]3OC(CNC(=N)N)=CC[C@H]3NC(=N)N)[C@@H](N)C[C@H]2N)OC[C@]1(C)O` [Example 105, 6′,2′-bis-Guanidinium-sisomicin], the minimal inhibitory concentration (MIC) in test [1] and in test [2] was over 16 µg/mL throughout.

Take `CN[C@@H]1[C@@H](O)[C@@H](O[C@@H]2[C@@H](O)[C@H](O[C@H]3OC(CN)=CC[C@H]3NCC3CCNC3)[C@@H](N)C[C@H]2NC(=O)[C@@H](O)CCN)OC[C@]1(C)O` (stereo partly drawn) [Example 84, 2′-(Methyl-pyrrolidin-3-yl)-1-(4-amino-2(S)-hydroxy-butyryl)-sisomicin]: the MIC is under 1 µg/mL in test [1] and 1 to 16 µg/mL (≈ 1.58 to 25.3 µM) in test [2].

As to `CN[C@@H]1[C@@H](O)[C@@H](O[C@@H]2[C@@H](O)[C@H](O[C@H]3OC(CNCC4CC4)=CC[C@H]3N)[C@@H](N)C[C@H]2NC(=O)[C@H](O)CCN)OC[C@]1(C)O` [Example 5, 6′-(Methyl-cyclopropyl)-1-(4-amino-2(R)-hydroxy-butyryl)-sisomicin], the figures for the MIC in test [1] and in test [2] were under 1 µg/mL and 1 to 16 µg/mL (≈ 1.66 to 26.5 µM), respectively.

For `CN[C@@H]1[C@@H](O)[C@@H](O[C@@H]2[C@@H](O)[C@H](O[C@H]3OC(CNCCCN)=CC[C@H]3N)[C@@H](N)C[C@H]2NC(=O)C2(O)CCNC2)OC[C@]1(C)O` (stereo partly shown) [Example 40], the MIC in test [1] and in test [2] was 1 to 16 µg/mL (≈ 1.62 to 25.9 µM) throughout.

Turning to `CN[C@@H]1[C@@H](O)[C@@H](O[C@@H]2[C@@H](O)[C@H](O[C@H]3OC(CNCCCCCN)=CC[C@H]3N)[C@@H](N)C[C@H]2NC(=O)[C@@H](O)CCN)OC[C@]1(C)O` [Example 44, 6′-(5-Amino-pentyl)-1-(4-amino-2(S)-hydroxy-butyryl)-sisomicin], the MIC in test [1] was under 1 µg/mL; in test [2], 1 to 16 µg/mL (≈ 1.58 to 25.2 µM).

On to `CN[C@@H]1[C@@H](O)[C@@H](O[C@@H]2[C@@H](O)[C@H](O[C@H]3OC(CNC[C@H]4C[C@H](N)C4)=CC[C@H]3N)[C@@H](N)C[C@H]2NC(=O)[C@@H](O)CN)OC[C@]1(C)O` [Example 59, 6′-(Methyl-trans-3-amino-cyclobutyl)-1-(3-amino-2(S)-hydroxy-propionyl)-sisomicin], for which the MIC in test [1] was under 1 µg/mL; in test [2] it was 1 to 16 µg/mL (≈ 1.62 to 25.9 µM).

With `CN[C@@H]1[C@@H](O)[C@@H](O[C@@H]2[C@@H](O)[C@H](O[C@H]3OC(CNC[C@H]4C[C@H](N)C4)=CC[C@H]3N)[C@@H](N)C[C@H]2NC(=O)C2(O)CC(N)C2)OC[C@]1(C)O` (stereo partly shown) [Example 60], the MIC in test [1] was under 1 µg/mL; in test [2] it was 1 to 16 µg/mL (≈ 1.55 to 24.9 µM).

For the molecule `CN[C@@H]1[C@@H](O)[C@@H](O[C@@H]2[C@@H](O)[C@H](O[C@H]3OC(CNCC4(O)CCNCC4)=CC[C@H]3N)[C@@H](N)C[C@H]2NC(=O)[C@@H](O)CCN)OC[C@]1(C)O` [Example 31], the MIC in test [1] and in test [2] was 1 to 16 µg/mL (≈ 1.51 to 24.2 µM) each time.

Turning to `CN[C@@H]1[C@@H](O)[C@@H](O[C@@H]2[C@@H](O)[C@H](O[C@H]3OC(CN)=CC[C@H]3NS(=O)(=O)CCN)[C@@H](N)C[C@H]2NC(=O)[C@@H](O)CCN)OC[C@]1(C)O` [Example 93, 2′-(2-Amino-ethyl-sulfonamide)-1-(4-amino-2(S)-hydroxy-butyryl)-sisomicin], the minimal inhibitory concentration (MIC) is under 1 µg/mL in test [1] and 1 to 16 µg/mL (≈ 1.52 to 24.4 µM) in test [2].

For the molecule `CN[C@@H]1[C@@H](O)[C@@H](O[C@@H]2[C@@H](O)[C@H](O[C@H]3OC(CNCC4(N)CCC4)=CC[C@H]3N)[C@@H](N)C[C@H]2NC(=O)[C@@H](O)CN)OC[C@]1(C)O` [Example 56, 6′-(Methyl-1-amino-cyclobutyl)-1-(3-amino-2(S)-hydroxy-propionyl)-sisomicin], the MIC in test [1] is under 1 µg/mL; in test [2] it was over 16 µg/mL.

For the molecule `CN[C@@H]1[C@@H](O)[C@@H](O[C@@H]2[C@@H](O)[C@H](O[C@H]3OC(CNCC4CCCN4)=CC[C@H]3N)[C@@H](N)C[C@H]2NC(=O)[C@@H](O)CCN)OC[C@]1(C)O` (stereo partly drawn) [Example 49, 6′-(Methyl-pyrrolidin-2-yl)-1-(4-amino-2(S)-hydroxy-butyryl)-sisomicin], the minimal inhibitory concentration (MIC) in test [1] was under 1 µg/mL; in test [2], 1 to 16 µg/mL (≈ 1.58 to 25.3 µM).

For the molecule `CN[C@@H]1[C@@H](O)[C@@H](O[C@@H]2[C@@H](O)[C@H](O[C@H]3OC(CNCCNC4CNC4)=CC[C@H]3N)[C@@H](N)C[C@H]2NC(=O)[C@@H](O)CN)OC[C@]1(C)O` [Example 81, 6′-(N-(Azetidin-3-yl)-2-amino-ethyl)-1-(3-amino-2(S)-hydroxy-propionyl)-sisomicin], the MIC in test [1] was 1 to 16 µg/mL (≈ 1.58 to 25.3 µM); in test [2], over 16 µg/mL.

As to `CNCC(=O)N[C@@H]1CC=C(CN)O[C@@H]1O[C@H]1[C@H](O)[C@@H](O[C@H]2OC[C@](C)(O)[C@H](NC)[C@H]2O)[C@H](NC(=O)[C@@H](O)CCN)C[C@@H]1N` [Example 86, 2′-(N-Methyl-amino-acetyl)-1-(4-amino-2(S)-hydroxy-butyryl)-sisomicin], the MIC in test [1] and in test [2] was 1 to 16 µg/mL (≈ 1.61 to 25.8 µM) throughout.

As for `CN[C@@H]1[C@@H](O)[C@@H](O[C@@H]2[C@@H](O)[C@H](O[C@H]3OC(CN)=CC[C@H]3NCC3CCCN3)[C@@H](N)C[C@H]2NC(=O)[C@@H](O)CCN)OC[C@]1(C)O` (stereo partly drawn) [Example 85, 2′-(Methyl-pyrrolidin-2-yl)-1-(4-amino-2(S)-hydroxy-butyryl)-sisomicin], the MIC in test [1] was under 1 µg/mL; in test [2], 1 to 16 µg/mL (≈ 1.58 to 25.3 µM).

In the case of `CN[C@@H]1[C@@H](O)[C@@H](O[C@@H]2[C@@H](O)[C@H](O[C@H]3OC(CNCCO)=CC[C@H]3N)[C@@H](N)C[C@H]2NS(=O)(=O)CCN)OC[C@]1(C)O` [Example 29, 6′-(2-Hydroxy-ethyl)-1-(2-amino-ethylsulfonamide)-sisomicin], the MIC in test [1] was 1 to 16 µg/mL (≈ 1.67 to 26.7 µM); in test [2], over 16 µg/mL.

Turning to `CN[C@@H]1[C@@H](O)[C@@H](O[C@@H]2[C@@H](O)[C@H](O[C@H]3OC(CNCCCCN)=CC[C@H]3N)[C@@H](N)C[C@H]2NC(=O)[C@@H](O)CCN)OC[C@]1(C)O` [Example 43, 6′-(4-Amino-butyl)-1-(4-amino-2(S)-hydroxy-butyryl)-sisomicin], the MIC in test [1] and in test [2] was under 1 µg/mL in each case.
